Results on 29 compounds are retold here after patent US8653100B2 (AbbVie Inc., priority 2008, dated 2014).

Counter-ions that a name gives are not always drawn.

human GlyT1c, sequence (P48067 whole entry): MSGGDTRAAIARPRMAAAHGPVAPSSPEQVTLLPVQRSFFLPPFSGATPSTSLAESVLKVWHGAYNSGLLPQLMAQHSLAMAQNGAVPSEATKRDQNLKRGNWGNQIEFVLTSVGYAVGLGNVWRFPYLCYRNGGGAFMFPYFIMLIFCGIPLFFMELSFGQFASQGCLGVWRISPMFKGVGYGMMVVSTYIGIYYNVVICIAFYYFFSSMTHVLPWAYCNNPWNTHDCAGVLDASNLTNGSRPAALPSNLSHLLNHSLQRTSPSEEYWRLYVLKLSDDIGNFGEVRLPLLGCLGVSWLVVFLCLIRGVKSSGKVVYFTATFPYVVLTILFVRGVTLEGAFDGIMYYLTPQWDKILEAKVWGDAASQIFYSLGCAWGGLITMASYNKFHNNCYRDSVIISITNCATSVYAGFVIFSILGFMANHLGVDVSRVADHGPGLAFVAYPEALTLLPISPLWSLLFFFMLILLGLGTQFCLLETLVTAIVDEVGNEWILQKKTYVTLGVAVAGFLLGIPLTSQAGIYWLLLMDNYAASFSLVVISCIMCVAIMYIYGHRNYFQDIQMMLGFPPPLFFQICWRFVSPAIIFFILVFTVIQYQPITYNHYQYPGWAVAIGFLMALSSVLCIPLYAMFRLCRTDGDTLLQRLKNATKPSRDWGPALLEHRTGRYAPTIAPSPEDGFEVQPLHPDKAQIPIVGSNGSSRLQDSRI

This assay addresses human GlyT1c (Homo sapiens (Human), UniProt P48067). Nature of the assay: [3H]-Glycine uptake into recombinant CHO cells expressing human GlyT1. Format: cell-based. As to conditions: hGlyT1c_5_CHO cells, 200 nM [3H]-glycine. On the procedure: [^3H]-Glycine uptake into recombinant CHO cells expressing human GlyT1: Human GlyT1c expressing recombinant hGlyT1c—5_CHO cells were plated at 20,000 cells per well in 96 well Cytostar-T scintillation microplates (Amersham Biosciences) and cultured to sub-confluency for 24 h. […] The plates were placed in a Wallac Microbeta (PerkinElmer) and continuously counted by solid phase scintillation spectrometry during up to 3 hours. […] IC50 calculations were made by four-parametric logistic nonlinear regression analysis (GraphPad Prism) using determinations within the range of linear increase of [^3H]-glycine incorporation between 60 and 120 min.
A word on the IC50: it is the concentration that inhibits the measured activity by half. With `CCCCS(=O)(=O)NCCOc1ccc2c(c1)C(C1(c3ccc(Cl)cc3)CCC1)N(C(=O)NCC)CC2` (centres unmarked) [Example 39, 7-[2-(Butane-1-sulfonylamino)-ethoxy]-1-[1-(4-chloro-phenyl)-cyclobutyl]-3,4-dihydro-1H-isoquinoline-2-carboxylic acid ethylamide hydrochloride], the IC50 was no more than 100000 nM.

On to `CCCCS(=O)(=O)NCCOc1ccc2c(c1)C(C1(c3ccc(Cl)cc3)CCC1)N(C)CC2` (centres unmarked) [Example 40, Butane-1-sulfonic acid (2-{1-[1-(4-chloro-phenyl)-cyclobutyl]-2-methyl-1,2,3,4-tetrahydro-isoquinolin-7-yloxy}-ethyl)-amide], for which the IC50 is no more than 1000 nM. The result for `CCS(=O)(=O)N1CCN(c2ccc3c(c2)C(C2(c4ccc(Cl)cc4)CCC2)NCC3)CC1` (centres unmarked) [Example 41, 1-[1-(4-Chloro-phenyl)-cyclobutyl]-7-(4-ethanesulfonyl-piperazin-1-yl)-1,2,3,4-tetrahydro-isoquinoline] reads no more than 100000 nM; that for `O=C(NCCOc1ccc2c(c1)C(C1(c3ccc(Cl)cc3)CCC1)NCC2)Nc1cccnc1` (centres unmarked) [Example 42, 1-(2-{1-[1-(4-Chloro-phenyl)-cyclobutyl]-1,2,3,4-tetrahydro-isoquinolin-7-yloxy}-ethyl)-3-pyridin-3-yl-urea hydrochloride], no more than 100000 nM; that for `Cn1cc(S(=O)(=O)NCCOc2ccc3c(c2)C(C2(c4ccc(Cl)cc4)CC(F)(F)C2)NCC3)cn1` (centres unmarked) [Example 43, 1-Methyl-1H-pyrazole-4-sulfonic acid (2-{1-[1-(4-chloro-phenyl)-3,3-difluoro-cyclobutyl]-1,2,3,4-tetrahydro-isoquinolin-7-yloxy}-ethyl)-amidehydrochloride], no more than 100 nM. Consider `CCCS(=O)(=O)NCCOc1ccc2c(c1)C(C1(c3ccc(Cl)cc3)CC(F)(F)C1)NCC2` (centres unmarked) [Example 44, Propane-1-sulfonic acid (2-{1-[1-(4-chloro-phenyl)-3,3-difluoro-cyclobutyl]-1,2,3,4-tetrahydro-isoquinolin-7-yloxy}-ethyl)-amide hydrochloride], for which the IC50 is no more than 100 nM.

Turning to `CCCS(=O)(=O)NCCN(CCOc1ccc2c(c1)C(C1(c3ccc(Cl)cc3)CCC1)NCC2)S(=O)(=O)CCC` (centres unmarked) [Example 45, Propane-1-sulfonic acid (2-{1-[1-(4-chloro-phenyl)-cyclobutyl]-1,2,3,4-tetrahydro-isoquinolin-7-yloxy}-ethyl)-[2-(propane-1-sulfonylamino)-ethyl]amide], the IC50 was no more than 1000 nM.

Turning to `CCCS(=O)(=O)NCCOc1ccc2c(c1)C(C1(c3ccc(Cl)cc3)CCC1)N(C(=N)NC#N)CC2` (centres unmarked) [Example 46, 1-(1-(4-Chlorophenyl)cyclobutyl)-N-cyano-7-(2-(propylsulfonamido)ethoxy)-3,4-dihydroisoquinoline-2(1H)-carboximidamide], the half-maximal inhibitory concentration (IC50) is no more than 1000 nM. As to `CCCS(=O)(=O)NCCOc1ccc2c(c1)C(C1(c3ccc(Cl)cc3)CCC1)N(C(=N)N)CC2` (centres unmarked) [Example 47, 1-[1-(4-Chloro-phenyl)-cyclobutyl]-7-[2-(propane-1-sulfonylamino)-ethoxy]-3,4-dihydro-1H-isoquinoline-2-carboxamidine], the half-inhibitory concentration (IC50) was no more than 10000 nM.

With `O=C(COc1ccc2c(c1)C(C1(c3ccc(Cl)cc3)CCC1)NCC2)N1CCNCC1` (centres unmarked) [Example 48, 2-{1-[1-(4-Chloro-phenyl)-cyclobutyl]-1,2,3,4-tetrahydro-isoquinolin-7-yloxy}-1-piperazin-1-yl-ethanone], the IC50 is no more than 10000 nM. As for `CCCS(=O)(=O)NCCOc1ccc2c(c1)C(C1(c3cccc(Cl)c3)CCC1)NCC2` (centres unmarked) [Example 49, Propane-1-sulfonic acid (2-{1-[1-(3-chloro-phenyl)-cyclobutyl]-1,2,3,4-tetrahydroisoquinolin-7-yloxy}-ethyl)-amide], the concentration for half-maximal inhibition (IC50) was no more than 100 nM.

Consider `CCCS(=O)(=O)NCCOc1ccc2c(c1)C(C1(c3ccccc3)CCC1)NCC2` (centres unmarked) [Example 50, 1-(1-Phenylcyclobutyl)-7-(2-(propylsulfonamido)ethoxy)-1,2,3,4-tetrahydroisoquinolinium chloride], for which the IC50 was no more than 100 nM. In the case of `Cn1cnc(S(=O)(=O)NCCOc2ccc3c(c2)C(C2(c4ccc(Cl)cc4)CCC2)NCC3)c1` (centres unmarked) [Example 51, 1-(1-(4-Chlorophenyl)cyclobutyl)-7-(2-(1-methyl-1H-imidazole-4-sulfonamido)ethoxy)-1,2,3,4-tetrahydroisoquinolinium chloride], the 50% inhibitory concentration (IC50) is no more than 100 nM. The result for `Cc1nc(S(=O)(=O)NCCOc2ccc3c(c2)C(C2(c4ccc(Cl)cc4)CCC2)NCC3)cn1C` (centres unmarked) [Example 52, 1-(1-(4-Chlorophenyl)cyclobutyl)-7-(2-(1,2-dimethyl-1H-imidazole-4-sulfonamido)ethoxy)-1,2,3,4-tetrahydroisoquinolinium chloride] reads no more than 10000 nM; that for `CCOC(=O)N1CCN(S(=O)(=O)NCCOc2ccc3c(c2)C(C2(c4ccc(Cl)cc4)CCC2)NCC3)CC1` (centres unmarked) [Example 54, Ethyl 4-(N-(2-(1-(1-(4-chlorophenyl)cyclobutyl)-1,2,3,4-tetrahydroisoquinolin-7-yloxy)ethyl)sulfamoyl)piperazine-1-carboxylate hydrochloride], no more than 10000 nM. Turning to `O=S(=O)(NCCOc1ccc2c(c1)C(C1(c3ccc(Cl)cc3)CCC1)NCC2)N1CCNCC1` (centres unmarked) [Example 55, N-(2-(1-(1-(4-Chlorophenyl)cyclobutyl)-1,2,3,4-tetrahydroisoquinolin-7-yloxy)ethyl)piperazine-1-sulfonamide dihydrochloride], the 50% inhibitory concentration (IC50) is no more than 10000 nM.

For `CCCS(=O)(=O)N1CCN(S(=O)(=O)NCCOc2ccc3c(c2)C(C2(c4ccc(Cl)cc4)CCC2)NCC3)CC1` (centres unmarked) [Example 56, N-(2-(1-(1-(4-Chlorophenyl)cyclobutyl)-1,2,3,4-tetrahydroisoquinolin-7-yloxy)ethyl)-4-(propylsulfonyl)piperazine-1-sulfonamide hydrochloride], the concentration for half-maximal inhibition (IC50) was no more than 10000 nM. For `O=S(=O)(NCCOc1ccc2c(c1)C(C1(c3ccc(Cl)cc3)CCC1)NCC2)c1c[nH]cn1` (centres unmarked) [Example 57, N-(2-(1-(1-(4-Chlorophenyl)cyclobutyl)-1,2,3,4-tetrahydroisoquinolin-7-yloxy)ethyl)-1H-imidazole-4-sulfonamide hydrochloride], the half-inhibitory concentration (IC50) was no more than 100 nM. Turning to `O=S(=O)(NCCOc1ccc2c(c1)C(C1(c3ccc(Cl)cc3)CCC1)NCC2)c1ccc(NCc2ccccc2)nc1` (centres unmarked) [Example 58, 6-(Benzylamino)-N-(2-(1-(1-(4-chlorophenyl)cyclobutyl)-1,2,3,4-tetrahydroisoquinolin-7-yloxy)ethyl)pyridine-3-sulfonamide hydrochloride], the IC50 was no more than 1000 nM. With `CCCNc1ccc(S(=O)(=O)NCCOc2ccc3c(c2)C(C2(c4ccc(Cl)cc4)CCC2)NCC3)cn1` (centres unmarked) [Example 59, N-(2-(1-(1-(4-Chlorophenyl)cyclobutyl)-1,2,3,4-tetrahydroisoquinolin-7-yloxy)ethyl)-6-(propylamino)pyridine-3-sulfonamide hydrochloride], the IC50 was no more than 10000 nM. The result for `CCCS(=O)(=O)NCCOc1ccc2c(c1)C(C(c1ccc(Cl)cc1)C(C)C)NCC2` (centres unmarked) [Example 60, dihydrochloride] reads no more than 10000 nM. In the case of `O=S(=O)(NCCOc1ccc2c(c1)C(C1(c3ccc(Cl)cc3)CCC1)NCC2)C1CCCNC1` (centres unmarked) [Example 61, N-(2-(1-(1-(4-Chlorophenyl)cyclobutyl)-1,2,3,4-tetrahydroisoquinolin-7-yloxy)ethyl)piperidine-3-sulfonamide dihydrochloride], the concentration for half-maximal inhibition (IC50) was no more than 100 nM. The result for `O=S(=O)(NCCOc1ccc2c(c1)C(C1(c3ccc(F)cc3)CCC1)NCC2)c1cccnc1` (centres unmarked) [Example 66, N-[2-({1-[1-(4-Fluorophenyl)cyclobutyl]-1,2,3,4-tetrahydroisoquinolin-7-yl}oxy)ethyl]pyridine-3-sulfonamide hydrochloride] reads no more than 100 nM. In the case of `CCCS(=O)(=O)NCCOc1ccc2c(c1)C(C1(c3ccc(Cl)cc3)CCC1)NCC2(C)C` (centres unmarked) [Example 67, N-[2-({1-[1-(4-Chlorophenyl)cyclobutyl]-4,4-dimethyl-1,2,3,4-tetrahydroisoquinolin-7-yl}oxy)ethyl]propane-1-sulfonamide hydrochloride] it was no more than 100 nM. In the case of `CCCS(=O)(=O)NCCOc1ccc2c(c1)CCNC2C1(c2ccc(Cl)cc2)CCC1` (centres unmarked) [Example 68, N-[2-({1-[1-(4-Chlorophenyl)cyclobutyl]-1,2,3,4-tetrahydroisoquinolin-6-yl}oxy)ethyl]propane-1-sulfonamide hydrochloride] it was no more than 10000 nM; in that of `CCN(CC)S(=O)(=O)NCCOc1ccc2c(c1)C(C1(c3ccc(Cl)cc3)CCC1)NCC2(C)C` (centres unmarked) [Example 69, N′-[2-({1-[1-(4-Chlorophenyl)cyclobutyl]-4,4-dimethyl-1,2,3,4-tetrahydroisoquinolin-7-yl}oxy)ethyl]-N,N-diethylsulfuric diamide hydrochloride], no more than 1000 nM; in that of `CCCS(=O)(=O)NCCOc1ccc2c(c1)C(C1(c3ccc(F)cc3)CCC1)N(C(=O)C(F)(F)F)CC2` (centres unmarked) [Example 70, N-[2-({1-[1-(4-Fluorophenyl)cyclobutyl]-2-(trifluoroacetyl)-1,1,3,4-tetrahydroisoquinolin-7-yl}oxy)ethyl]propane-1-sulfonamide], no more than 100000 nM. For the compound `CCCS(=O)(=O)NCCOc1ccc2c(c1)C(C1(c3ccc(F)cc3)CCC1)N(CC(F)(F)F)CC2` (centres unmarked) [Example 71, N-[2-({1-[1-(4-Fluorophenyl)cyclobutyl]-2-(2,2,2-trifluoroethyl)-1,2,3,4-tetrahydroisoquinolin-7-yl}oxy)ethyl]propane-1-sulfonamide hydrochloride], the concentration for half-maximal inhibition (IC50) was no more than 1000 nM.

With `CCCS(=O)(=O)NCCOc1ccc2c(c1)C(C1(c3ccc(F)cc3)CCC1)N(N=O)CC2` (centres unmarked) [Example 74, N-[2-({1-[1-(4-Fluorophenyl)cyclobutyl]-2-nitroso-1,2,3,4-tetrahydroisoquinolin-7-yl}oxy)ethyl]propane-1-sulfonamide], the IC50 was no more than 10000 nM.
